According to patent US20130065922A1, “NOVEL AMIDES AS FUNGICIDES” (priority 2010, published 2013):
Where two headings read alike, the source gives them in different places.

Experiments:
Pythium ultimum = assay: Pythium ultimum/Liquid Culture (Seedling Damping Off); assay type: cell-based; settings: Globisporangium ultimum, read-out: inhibit fungal infestation
Phytophthora infestans = assay: whole plant or invertebrate; assay type: in vivo; settings: in Solanum lycopersicum, foliar, read-out: inhibit fungal infestation
[1] = tested on: Blumeria graminis f. Sp. tritici (Erysiphe graminis f. Sp. tritici); assay: Blumeria graminis f. Sp. tritici (Erysiphe graminis f. Sp. tritici)/Wheat/Leaf Disc Preventative (Powdery Mildew on Wheat); assay type: in vivo; settings: foliar, read-out: inhibit fungal infestation
Plasmopara viticola = assay: whole plant or invertebrate; assay type: in vivo; settings: foliar, read-out: inhibit fungal infestation
[2] = 200 ppm, liquid culture (PDB), 24° C., growth inhibition photometrically 2-3 days after application
[3] = 200 ppm, wheat leaf segments cv. Kanzler, preventative, 6-8 days after application, untreated control infected to over 80%

Structure (SMILES)	melting point	inhibition at 200 ppm [1, 3]	also measured
CCC(Oc1ccc2ncc(OC)cc2c1)C(=O)NC(C)(C#N)COC (stereo not drawn)	122 to 124 °C	–	–
CCC(Oc1cc(C)c2ncc(SC)cc2c1)C(=O)NC(C)(C)C (stereo not drawn)	119 to 121 °C	–	–
CCC(Oc1cc(C)c2ncc(SC)cc2c1)C(=O)NC1CCC1 (stereo not drawn)	136 to 138 °C	–	–
CCC(Oc1cc(C)c2ncc(SC)cc2c1)C(=O)NC(C)C (stereo not drawn)	132 to 134 °C	–	–
C#CC(C)(C)NC(=O)C(CC)Oc1cc(Cl)c2ncc(SC)cc2c1 (stereo not drawn)	140 to 142 °C	–	–
CCC(Oc1cc(Cl)c2ncc(SC)cc2c1)C(=O)NC(C)C (stereo not drawn)	143 to 145 °C	–	–
CCC(Oc1cc(Cl)c2ncc(SC)cc2c1)C(=O)NC(C)(C)C (stereo not drawn)	134 to 136 °C	–	–
COC(Oc1cc(C)c2ncc(SC)cc2c1)C(=O)NC(C)(C)C (stereo not drawn)	146 to 148 °C	–	–
COC(Oc1cc(C)c2ncc(SC)cc2c1)C(=O)NC1CCC1 (stereo not drawn)	132 to 134 °C	–	–
C#CC(C)(C)NC(=O)C(OC)Oc1cc(C)c2ncc(SC)cc2c1 (stereo not drawn)	124 to 127 °C	–	–
C#CC(C)(C)NC(=O)C(OC)Oc1cc(Cl)c2ncc(SC)cc2c1 (stereo not drawn)	116 to 118 °C	–	–
COC(Oc1cc(Cl)c2ncc(SC)cc2c1)C(=O)NC(C)(C)C (stereo not drawn)	125 to 127 °C	–	–
COC(Oc1cc(Cl)c2ncc(SC)cc2c1)C(=O)NC1CCC1 (stereo not drawn)	128 to 130 °C	–	–
COC(Oc1cc(Cl)c2ncc(SC)cc2c1)C(=O)NC1(C)CCC1 (stereo not drawn)	113 to 115 °C	–	–
COCC(C)(C#N)NC(=O)C(OC)Oc1cc(Cl)c2ncc(SC)cc2c1 (stereo not drawn)	90 to 93 °C	–	–
C#CC(C)(C)NC(=O)C(OC)Oc1ccc2ncc(SC)cc2c1 (stereo not drawn)	123 to 125 °C	–	–
COC(Oc1ccc2ncc(SC)cc2c1)C(=O)NC1(C)CCC1 (stereo not drawn)	100 to 102 °C	–	–
CO/N=C/C(C)(C)NC(=O)C(Oc1ccc2ncc(OC)cc2c1)SC (stereo not drawn) [Compound 1, N-(2-Methoxyimino-1,1-dimethyl-ethyl)-2-(3-methoxy-quinolin-6-yloxy)-2-methylsulfanyl-acetamide]	122 to 124 °C	≥ 80%	inhibition at 200 ppm (Pythium ultimum; [2]): ≥ 80%; inhibition at 200 ppm (Phytophthora infestans): ≥ 80%
COc1cnc2ccc(OC(SC)C(=O)NC(C)(C)C)cc2c1 (stereo not drawn) [Compound 2, N-tert-Butyl-2-(3-methoxy-quinolin-6-yloxy)-2-methylsulfanyl-acetamide]	110 to 115 °C	≥ 80%	inhibition at 200 ppm (Pythium ultimum; [2]): ≥ 80%; inhibition at 200 ppm (Phytophthora infestans): ≥ 80%
COCC(C)(C#N)NC(=O)C(Oc1ccc2ncc(OC)cc2c1)SC (stereo not drawn) [Compound 3, N-(1-Cyano-2-methoxy-1-methyl-ethyl)-2-(3-methoxy-quinolin-6-yloxy)-2-methylsulfanyl-acetamide]	75 to 77 °C	≥ 80%	inhibition at 200 ppm (Pythium ultimum; [2]): ≥ 80%
CCC(Oc1ccc2ncc(OC)cc2c1)C(=O)NC(C)(C)/C=N/OC (stereo not drawn) [Compound 6, N-(2-Methoxyimino-1,1-dimethyl-ethyl)-2-(3-methoxy-quinolin-6-yloxy)-butyramide]	87 to 89 °C	≥ 80%	inhibition at 200 ppm (Pythium ultimum; [2]): ≥ 80%
C#CC(C)(C)NC(=O)C(CC)Oc1ccc2ncc(OC)cc2c1 (stereo not drawn) [Compound 7, N-(1,1-Dimethyl-prop-2-ynyl)-2-(3-methoxy-quinolin-6-yloxy)-butyramide]	109 to 112 °C	≥ 80%	inhibition at 200 ppm (Pythium ultimum; [2]): ≥ 80%; inhibition at 200 ppm (Phytophthora infestans): ≥ 80%

Structure (SMILES)	melting point	inhibition at 200 ppm [1, 3]	also measured
CO/N=C/C(C)(C)NC(=O)C(OC)Oc1ccc2ncc(OC)cc2c1 (stereo not drawn) [Compound 8, 2-Methoxy-N-(2-methoxyimino-1,1-dimethyl-ethyl)-2-(3-methoxy-quinolin-6-yloxy)-acetamide]	100 to 106 °C	≥ 80%	inhibition at 200 ppm (Pythium ultimum; [2]): ≥ 80%; inhibition at 200 ppm (Phytophthora infestans): ≥ 80%
C#CC(C)(C)NC(=O)C(OC)Oc1ccc2ncc(OC)cc2c1 (stereo not drawn) [Compound 9, N-(1,1-Dimethyl-prop-2-ynyl)-2-methoxy-2-(3-methoxy-quinolin-6-yloxy)-acetamide]	124 to 127 °C	≥ 80%	–
CCC(Oc1ccc2ncc(OC)cc2c1)C(=O)NC(C)(C)C (stereo not drawn) [Compound 12, N-tert-Butyl-2-(3-methoxy-quinolin-6-yloxy)-butyramide]	131 to 133 °C	–	inhibition at 200 ppm (Pythium ultimum; [2]): ≥ 80%; inhibition at 200 ppm (Phytophthora infestans): ≥ 80%
CCOc1cnc2c(C)cc(OC(SC)C(=O)NC(C)(C)C)cc2c1 (stereo not drawn) [Compound 20, N-tert-Butyl-2-(3-ethoxy-8-methyl-quinolin-6-yloxy)-2-methylsulfanyl-acetamide]	181 to 183 °C	–	inhibition at 200 ppm (Pythium ultimum; [2]): ≥ 80%
CC#CC(C)(C)NC(=O)C(Oc1cc(C)c2ncc(OCC)cc2c1)SC (stereo not drawn) [Compound 24, N-(1,1-Dimethyl-but-2-ynyl)-2-(3-ethoxy-8-methyl-quinolin-6-yloxy)-2-methylsulfanyl-acetamide]	137 to 139 °C	–	inhibition at 200 ppm (Pythium ultimum): ≥ 80%; inhibition at 200 ppm (Plasmopara viticola): ≥ 80%; inhibition at 200 ppm [1]: ≥ 80%
CCC(Oc1ccc2ncc(SC)cc2c1)C(=O)NC(C)C (stereo not drawn) [Compound 28, N-Isopropyl-2-(3-methylsulfanyl-quinolin-6-yloxy)-butyramide]	112 to 115 °C	–	inhibition at 200 ppm (Pythium ultimum; [2]): ≥ 80%
CO/N=C/C(C)(C)NC(=O)C(Oc1cc(Cl)c2ncc(SC)cc2c1)SC (stereo not drawn) [Compound 31, 2-(8-Chloro-3-methylsulfanyl-quinolin-6-yloxy)-N-(2-methoxyimino-1,1-dimethyl-ethyl)-2-methylsulfanyl-acetamide]	168 to 170 °C	–	inhibition at 200 ppm (Pythium ultimum; [2]): ≥ 80%; inhibition at 200 ppm (Plasmopara viticola): ≥ 80%
CCC(Oc1cc(Cl)c2ncc(SC)cc2c1)C(=O)NC(C)(C)/C=N/OC (stereo not drawn) [Compound 39, 2-(8-Chloro-3-methylsulfanyl-quinolin-6-yloxy)-N-(2-methoxyimino-1,1-dimethyl-ethyl)-butyramide]	119 to 121 °C	–	inhibition at 200 ppm (Plasmopara viticola): ≥ 80%
CO/N=C/C(C)(C)NC(=O)C(OC)Oc1cc(C)c2ncc(SC)cc2c1 (stereo not drawn) [Compound 43, 2-Methoxy-N-(2-methoxyimino-1,1-dimethyl-ethyl)-2-(8-methyl-3-methylsulfanyl-quinolin-6-yloxy)-acetamide]	109 to 111 °C	–	inhibition at 200 ppm (Plasmopara viticola): ≥ 80%
CC#CC(C)(C)NC(=O)C(OC)Oc1cc(C)c2ncc(SC)cc2c1 (stereo not drawn) [Compound 46, N-(1,1-Dimethyl-but-2-ynyl)-2-methoxy-2-(8-methyl-3-methylsulfanyl-quinolin-6-yloxy)-acetamide]	102 to 104 °C	–	inhibition at 200 ppm (Plasmopara viticola): ≥ 80%
CO/N=C/C(C)(C)NC(=O)C(OC)Oc1cc(Cl)c2ncc(SC)cc2c1 (stereo not drawn) [Compound 47, 2-(8-Chloro-3-methylsulfanyl-quinolin-6-yloxy)-2-methoxy-N-(2-methoxyimino-1,1-dimethyl-ethyl)-acetamide]	121 to 123 °C	≥ 80%	inhibition at 200 ppm (Plasmopara viticola): ≥ 80%
CC#CC(C)(C)NC(=O)C(OC)Oc1cc(Cl)c2ncc(SC)cc2c1 (stereo not drawn) [Compound 48, 2-(8-Chloro-3-methylsulfanyl-quinolin-6-yloxy)-N-(1,1-dimethyl-but-2-ynyl)-2-methoxy-acetamide]	90 to 92 °C	–	inhibition at 200 ppm (Plasmopara viticola): ≥ 80%
COCC#CC(C)(C)NC(=O)C(OC)Oc1cc(Cl)c2ncc(SC)cc2c1 (stereo not drawn) [Compound 49, 2-(8-Chloro-3-methylsulfanyl-quinolin-6-yloxy)-2-methoxy-N-(4-methoxy-1,1-dimethyl-but-2-ynyl)-acetamide]	85 to 87 °C	–	inhibition at 200 ppm (Plasmopara viticola): ≥ 80%
COC(Oc1cc(Cl)c2ncc(SC)cc2c1)C(=O)NC(C)C (stereo not drawn) [Compound 52]	115 to 118 °C	≥ 80%	–
CO/N=C/C(C)(C)NC(=O)C(OC)Oc1ccc2ncc(SC)cc2c1 (stereo not drawn) [Compound 56, 2-Methoxy-N-(2-methoxyimino-1,1-dimethyl-ethyl)-2-(3-methylsulfanyl-quinolin-6-yloxy)-acetamide]	98 to 100 °C	–	inhibition at 200 ppm (Pythium ultimum; [2]): ≥ 80%; inhibition at 200 ppm (Phytophthora infestans): ≥ 80%
CC#CC(C)(C)NC(=O)C(OC)Oc1ccc2ncc(SC)cc2c1 (stereo not drawn) [Compound 57, N-(1,1-Dimethyl-but-2-ynyl)-2-methoxy-2-(3-methylsulfanyl-quinolin-6-yloxy)-acetamide]	63 to 65 °C	–	inhibition at 200 ppm [1]: ≥ 80%
COCC#CC(C)(C)NC(=O)C(OC)Oc1ccc2ncc(SC)cc2c1 (stereo not drawn) [Compound 58, 2-Methoxy-N-(4-methoxy-1,1-dimethyl-but-2-ynyl)-2-(3-methylsulfanyl-quinolin-6-yloxy)-acetamide]	74 to 76 °C	–	inhibition at 200 ppm [1]: ≥ 80%
COC(Oc1ccc2ncc(SC)cc2c1)C(=O)NC(C)(C)C (stereo not drawn) [Compound 60, N-tert-Butyl-2-methoxy-2-(3-methylsulfanyl-quinolin-6-yloxy)-acetamide]	119 to 121 °C	≥ 80%	–
COC(Oc1ccc2ncc(SC)cc2c1)C(=O)NC1CCC1 (stereo not drawn) [Compound 61, N-Cyclobutyl-2-methoxy-2-(3-methylsulfanyl-quinolin-6-yloxy)-acetamide]	80 to 82 °C	≥ 80%	–
CCOCC(C)(C)NC(=O)C(Oc1ccc2ncc(SC)cc2c1)SC (stereo not drawn) [Compound 66, N-(2-Ethoxy-1,1-dimethyl-ethyl)-2-methylsulfanyl-2-(3-methylsulfanyl-quinolin-6-yloxy)-acetamide]	–	≥ 80%	–
CSc1cnc2ccc(OC(SC)C(=O)NC(C)(C)CCF)cc2c1 (stereo not drawn) [Compound 67, N-(3-Fluoro-1,1-dimethyl-propyl)-2-methylsulfanyl-2-(3-methylsulfanyl-quinolin-6-yloxy)-acetamide]	–	≥ 80%	inhibition at 200 ppm (Plasmopara viticola): ≥ 80%
